Measurements taken from patent US20250170248A1, “SMARCA DEGRADERS AND USES THEREOF” (Kymera Therapeutics, Inc., priority 2021, published 2025).

Legend:
Type in all cases: cell-based
[1] = target: T1, SMARCA2 (Homo sapiens, UniProt P51531); experiment: MSD SMARCA2 degradation in A549 cell line; details: for DC50 / SMARCA2 MSD A549 degradation 24 h: Average Dmax %: A549 cells; for DC50 / Dmax: 24 h; for DC50: read-out: SMARCA2 MSD A549 degradation 24 h: Average external-Abs DC50; for Dmax: A549, A549 cells
T1 sequence (P51531 whole entry): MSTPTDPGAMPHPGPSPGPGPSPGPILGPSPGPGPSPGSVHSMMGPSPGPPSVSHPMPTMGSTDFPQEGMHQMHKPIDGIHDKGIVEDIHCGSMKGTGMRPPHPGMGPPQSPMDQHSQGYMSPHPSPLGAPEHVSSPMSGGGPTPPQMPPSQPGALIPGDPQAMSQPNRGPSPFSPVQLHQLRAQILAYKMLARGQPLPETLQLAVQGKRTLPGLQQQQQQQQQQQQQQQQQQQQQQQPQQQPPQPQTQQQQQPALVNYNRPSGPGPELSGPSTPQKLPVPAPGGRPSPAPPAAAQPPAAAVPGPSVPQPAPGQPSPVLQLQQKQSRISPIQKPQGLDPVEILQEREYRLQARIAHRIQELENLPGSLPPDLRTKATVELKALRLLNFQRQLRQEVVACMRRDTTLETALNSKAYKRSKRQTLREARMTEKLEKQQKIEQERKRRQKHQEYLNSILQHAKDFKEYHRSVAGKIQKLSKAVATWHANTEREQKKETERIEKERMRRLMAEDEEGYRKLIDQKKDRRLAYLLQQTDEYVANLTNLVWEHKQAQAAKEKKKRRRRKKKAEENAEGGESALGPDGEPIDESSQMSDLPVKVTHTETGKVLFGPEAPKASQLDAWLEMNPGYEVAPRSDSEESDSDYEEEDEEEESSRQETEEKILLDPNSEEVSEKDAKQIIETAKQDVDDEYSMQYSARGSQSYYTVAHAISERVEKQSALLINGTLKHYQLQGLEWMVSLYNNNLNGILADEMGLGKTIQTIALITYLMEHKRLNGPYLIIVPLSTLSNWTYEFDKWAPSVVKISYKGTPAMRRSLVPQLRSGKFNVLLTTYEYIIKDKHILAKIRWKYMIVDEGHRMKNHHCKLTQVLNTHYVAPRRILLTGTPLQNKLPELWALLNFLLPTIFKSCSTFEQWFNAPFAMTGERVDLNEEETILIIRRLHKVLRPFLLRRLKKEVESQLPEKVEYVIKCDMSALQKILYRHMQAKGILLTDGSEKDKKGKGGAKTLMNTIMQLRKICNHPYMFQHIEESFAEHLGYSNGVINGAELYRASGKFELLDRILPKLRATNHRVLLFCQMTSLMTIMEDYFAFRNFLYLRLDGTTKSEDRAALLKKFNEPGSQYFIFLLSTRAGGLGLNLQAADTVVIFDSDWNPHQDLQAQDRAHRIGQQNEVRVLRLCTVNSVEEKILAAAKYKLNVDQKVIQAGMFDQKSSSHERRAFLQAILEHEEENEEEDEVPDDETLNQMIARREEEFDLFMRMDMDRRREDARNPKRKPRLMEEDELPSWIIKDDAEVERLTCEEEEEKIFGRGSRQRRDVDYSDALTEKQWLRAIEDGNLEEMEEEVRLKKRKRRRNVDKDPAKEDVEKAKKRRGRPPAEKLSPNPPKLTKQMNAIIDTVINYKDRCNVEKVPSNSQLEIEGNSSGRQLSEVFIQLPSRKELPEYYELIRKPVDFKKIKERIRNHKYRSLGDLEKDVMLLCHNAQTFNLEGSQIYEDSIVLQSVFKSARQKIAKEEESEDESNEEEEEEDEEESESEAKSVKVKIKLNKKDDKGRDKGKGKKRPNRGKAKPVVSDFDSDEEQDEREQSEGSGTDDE
Procedure: Example 10. MSD SMARCA2 Degradation in A549 Cell Line
Cells were seeded into 96-well plates (A549 cells: 2×10^4 cells/well/100 ul media) and incubated overnight. The next day, 200 nL compound were added into the intermediate plate with Echo (Labcyte 550) from source plate containing a 3-fold serial dilution from top concentration of 1 mM. The culture medium was changed with 8 0ul of fresh medium and 80 μL of 2× compound solution was added into the well to make a final concentration of 1000 nM, 333.3 nM, 111.1 nM, 37.04 nM, 12.35 nM, 4.115 nM, 1.372 nM, 0.457 nM, 0.152 nM and 0 nM (DMSO). The wells were mixed and then incubated for 24 hours. The media was aspirated from the cultures and 60 ul pre-chilled PIPA lysis buffer (Boston BioProducts BP-115D) with protease/phosphatase inhibitor (Roche 05892791001/Roche 04906837001) was added into the well to lyze the cells for 20 minutes at 4° C. The MSD plate (L15XA) was coated with 40 uL cell lysate and incubated at 4° C. overnight. The next day, the plate was washed three times with TBST (CST #9997S), 150 ul/well. The MSD plates was blocked with 150 ul blocking buffer per well and shaked for 1 hr at RT, 600 rpm. The blocking buffer was 3% Blocker A (MSD, R93BA-4) in TBST. The MSD plate was washed three times with 150 uL/well of TBST and 25 ul/well of detection antibody (Rabbit anti-SMARCA2/BRM antibody, 100 μg/mL, ab223735) was added at final concentration of 1 μg/mL diluted in 1% Blocking buffer and shaken for 1 hour at RT, 600 rpm. The MSD plate was washed three times with 150 ul/well of TBST and 25 ul/well of SULFO-TAG anti-rabbit antibody (MSD, R32AB-1) was added at final concentration of 1 μg/ml diluted in 1% Blocking buffer and shaken for 1 hour at RT, 600 rpm. The MSD plate was washed three times with 150 uL/well of TBST and 150 ul/well of 2× MSD reading buffer diluted from 4× (MSD, R92TC-2) with water was added. Lastly, the MSD instrument was read.
The letter codes for SMARCA2 degradation potency (DC50) include: A (<10 nM), B (10-50 nM), C (>50-100 nM), and D (>100 nM). The letter codes for the percentage of SMARCA degradation after 24 hours (Dmax %) include: A (>90% degradation), B (>70-90% degradation), C (50-70% degradation), and D (<50% degradation).

[2] = target: T1, SMARCA2; experiment: SMARCA2 Western blot degradation in MV4-11 cells; design: SMARCA2/SMARCA4 protein degradation selectivity in MV4-11 cells; endogenous in cells; host or cells: MV4-11; details: for SMARCA2 MSD MV411 degradation 24 h: average Dmax % / DC50 / Selectivity in MV411: MV4-11 cells; for SMARCA2 MSD MV411 degradation 24 h: average Dmax % / DC50 / Dmax: 24 h; for DC50: read-out: SMARCA2 MSD MV411 degradation 24 h: Mean external-Abs DC50; for Dmax: MV4-11, MV4-11 cells, read-out: SMARCA2 MSD MV411 degradation 24 h: average Dmax %; for Selectivity in MV411: SMARCA2/4 selectivity
[3] = target: T2, SMARCA4 (Homo sapiens, UniProt P51532); experiment: SMARCA4 Western blot degradation in MV4-11 cells; details: for DC50 / Dmax: 24 h; for DC50: read-out: SMARCA4 MSD MV411 degradation 24 h: Mean external-Abs DC50; for Dmax: MV4-11, MV4-11 cells, read-out: SMARCA4 MSD MV411 degradation 24 h: average Dmax %
T2 construct: SMARCA2/SMARCA4 protein degradation selectivity in MV4-11 cells; endogenous in cells; host or cells: MV4-11
T2 sequence (P51532 whole entry): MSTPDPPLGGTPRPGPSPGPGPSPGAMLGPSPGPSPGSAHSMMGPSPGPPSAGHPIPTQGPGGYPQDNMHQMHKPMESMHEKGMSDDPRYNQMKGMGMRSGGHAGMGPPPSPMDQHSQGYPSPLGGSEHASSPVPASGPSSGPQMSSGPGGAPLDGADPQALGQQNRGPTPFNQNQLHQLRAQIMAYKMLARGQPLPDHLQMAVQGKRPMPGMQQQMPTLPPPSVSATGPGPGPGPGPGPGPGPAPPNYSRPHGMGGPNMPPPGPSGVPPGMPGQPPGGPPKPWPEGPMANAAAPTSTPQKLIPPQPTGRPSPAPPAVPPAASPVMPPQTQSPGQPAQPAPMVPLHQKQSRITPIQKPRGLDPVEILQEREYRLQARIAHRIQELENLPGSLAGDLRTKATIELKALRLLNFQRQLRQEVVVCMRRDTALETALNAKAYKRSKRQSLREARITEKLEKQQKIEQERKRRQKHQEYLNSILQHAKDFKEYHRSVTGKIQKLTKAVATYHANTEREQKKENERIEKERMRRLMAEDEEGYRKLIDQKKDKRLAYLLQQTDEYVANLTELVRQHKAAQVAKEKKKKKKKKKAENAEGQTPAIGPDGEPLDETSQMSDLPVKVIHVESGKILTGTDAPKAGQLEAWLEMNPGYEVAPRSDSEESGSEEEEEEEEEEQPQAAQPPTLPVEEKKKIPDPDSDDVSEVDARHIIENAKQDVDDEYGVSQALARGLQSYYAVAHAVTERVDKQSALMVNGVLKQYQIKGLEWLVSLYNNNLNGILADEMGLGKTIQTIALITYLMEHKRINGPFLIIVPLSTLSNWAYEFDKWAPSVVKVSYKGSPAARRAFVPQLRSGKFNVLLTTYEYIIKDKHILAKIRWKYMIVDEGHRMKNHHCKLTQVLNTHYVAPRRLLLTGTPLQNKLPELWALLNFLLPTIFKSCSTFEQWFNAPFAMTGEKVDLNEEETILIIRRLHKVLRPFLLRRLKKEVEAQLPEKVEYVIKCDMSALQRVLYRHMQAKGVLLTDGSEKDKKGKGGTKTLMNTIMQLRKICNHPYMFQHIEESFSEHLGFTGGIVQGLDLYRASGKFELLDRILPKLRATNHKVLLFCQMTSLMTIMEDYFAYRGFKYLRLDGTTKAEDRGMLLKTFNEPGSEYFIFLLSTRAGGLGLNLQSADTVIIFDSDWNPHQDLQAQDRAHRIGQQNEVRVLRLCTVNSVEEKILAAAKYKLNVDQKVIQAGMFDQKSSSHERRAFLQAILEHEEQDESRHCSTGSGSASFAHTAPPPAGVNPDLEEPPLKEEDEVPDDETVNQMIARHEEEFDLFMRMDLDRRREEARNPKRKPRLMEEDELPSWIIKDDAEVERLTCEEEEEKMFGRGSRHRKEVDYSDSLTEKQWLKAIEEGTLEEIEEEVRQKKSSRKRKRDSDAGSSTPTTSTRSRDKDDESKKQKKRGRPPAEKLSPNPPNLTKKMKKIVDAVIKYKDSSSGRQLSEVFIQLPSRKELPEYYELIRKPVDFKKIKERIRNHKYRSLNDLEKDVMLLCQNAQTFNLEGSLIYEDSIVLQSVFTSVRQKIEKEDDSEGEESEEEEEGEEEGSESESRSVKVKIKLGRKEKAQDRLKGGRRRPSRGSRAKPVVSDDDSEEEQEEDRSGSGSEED
Procedure: Example 11. SMARCA2 and SMARCA4 Western Blot MV4-11 Degradation
Cells were seeded into 6-well plates (MV4-11:4×10^6 cells/well/1 ml) and 1 ml of 2× compound solution was added into the well to make the final concentration and the plates were mixed well and incubated for 24 hours (No cytotoxicity was observed). The cell were collected with media and spun at 3000 rpm for 5 minutes. The supernatant was aspirated and the well and the cells were washed with cold PBS once and combined for centrifugation again; the supernatant aspirated again. 200 uL pre-chilled RIPA lysis buffer (Boston BioProducts BP-115D) with protease/phosphatase inhibitor (Roche 05892791001/Roche 04906837001) was directly added into the tube to lyze the cells for 20 minutes on ice. The cell lysate were collected into EP tubes and spun at 13000 rpm for 20 minutes and 72 uL supernatant was transferred to a fresh EP tube containing 18 μL of 5× loading buffer (Beyotime Bio P0015) to make the loading samples. The samples were heated to 100° C. for 10 minutes and cooled to RT and microcentrifuged. 20 μL of samples were loaded onto SDS-PAGE gel (Novex, WG1402BOX) and the gel was run at 80 V for 20 minutes and 120 V for 1.5 hours. The samples were electrotransfer to a NC membrane using wet-transfer method with 250 mA for 2.5 hours. The membrane was blocked with LICOR blocking buffer (LI COR,927-50000) for 1 hour. The membrane was washed three times with TBST(CST #9997S), 5 minutes each. Incubation was performed with primary antibody prepared in blocking buffer with 0.1% Tween-20 (Solarbio, P8220) at 4° C. overnight (Anti-SMARCA2/BRM antibody (ab15597) 1:500; Anti-BRG1 antibody [EPR3912](ab108318) 1:1000; Rabbit anti-Bafl80 antibody [EPR15860](Abcam,ab196022) 1:1000; mouse anti-beta-Actin (8H10D10) (CST #3700) 1:10000). The membrane was washed three times with TBST, 5 minutes each. Incubation with secondary antibody was performed for 1 hour at RT (anti-rabbit IgG (Licor,926-32211) 1:5000; anti-mouse IgG (LI-COR, 926-68070) 1:5000). The membrane was washed three times with 5 minutes each and lastly the LiCOR was read.
The letter codes for SMARCA2/4 degradation potency (DC50) include: A (<1 nM), B (1-10 nM), C (>10-100 nM), and D (>100 nM). The letter codes for the percentage of SMARCA2/4 degradation after 24 hours (Dmax %) include: A (>90% degradation), B (>70-90% degradation), C (50-70% degradation), and D (<50% degradation). The letter codes of SMARCA2/4 selectivity include: A (>500 fold), B (>100-500 fold), C (10-100 fold), and D (<10 fold). Table 8. SMARCA2/4 Selectivity Results

Compound	DC50 [1]	SMARCA2 MSD MV411 degradation 24 h: average Dmax % [2]	DC50 [2]	SMARCA2 MSD A549 degradation 24 h: Average Dmax % [1]	Dmax [2]	Dmax [1]	Selectivity in MV411 [2]	SMARCA4 MSD MV411 degradation 24 h: average Dmax % ([3]; MV4-11 cells)	DC50 ([3]; MV4-11 cells)	Dmax [3]
Cc1cc(F)ccc1C#CCNC(=O)[C@@H]1C[C@@H](O)CN1C(=O)[C@@H](NC(=O)[C@H]1CCC2(CC1)C[C@H](N1CCC(c3cnc(N4CCN5c6cc(-c7ccccc7O)nnc6NC[C@H]5C4)nc3)CC1)C2)C(C)(C)C (some centres unmarked) [I-115]	> 100 nM									
Cc1cc(F)ccc1C#CCNC(=O)[C@@H]1C[C@@H](O)CN1C(=O)[C@@H](NC(=O)[C@H]1CCC2(CC1)C[C@H](N1CCC(c3cnc(N4CCN5c6cc(-c7ccccc7O)nnc6NC[C@H]5C4)nc3)CC1)C2)C(C)(C)C (single isomer, unassigned) [I-106]	> 100 nM		> 100 nM		< 50%	< 50%				
Cc1ncsc1-c1ccc(CNC(=O)[C@@H]2C[C@@H](O)CN2C(=O)[C@@H](NC(=O)[C@H]2CCC3(CC2)C[C@H](N2CCN(c4cnc(N5CCc6[nH]c7nnc(-c8ccccc8O)cc7c6[C@H]5C)nc4)CC2)C3)C(C)(C)C)cc1 (single isomer, unassigned) [I-118]	> 100 nM	C (C (50-70% degradation))	10 to 100 nM	B (B (>70-90% degradation))						
C#CCOc1cc(C(C(=O)N2C[C@H](O)C[C@H]2C(=O)NCc2ccc(-c3scnc3C)cc2O[C@H]2CC[C@@H](N3CCC(c4cnc(N5CCc6[nH]c7nnc(-c8ccccc8O)cc7c6[C@@H]5C)nc4)CC3)CC2)C(C)C)on1 (some centres unmarked) [I-39]	> 100 nM					50 to 70%				
Cc1ncsc1-c1ccc(CNC(=O)[C@@H]2C[C@@H](O)CN2C(=O)[C@@H](NC(=O)N2CCC3(CC2)CC(N2CCC(c4cnc(N5CCc6[nH]c7nnc(-c8ccccc8O)cc7c6[C@@H]5C)nc4)CC2)C3)C(C)(C)C)cc1 [I-59]						< 50%				
Cc1ncsc1-c1ccc(CNC(=O)[C@@H]2C[C@@H](O)CN2C(=O)[C@@H](NC(=O)C2(F)CC2)C(C)(C)C)c(OCCCCN2CCN(c3cnc(N4CCN5c6cc(-c7ccccc7O)nnc6NC[C@H]5C4)nc3)CC2)c1 (single isomer, unassigned) [I-45]			< 1 nM		> 90%		D (D (<10 fold))		1 to 10 nM	> 90%
C#Cc1ccc(CNC(=O)[C@@H]2C[C@@H](O)CN2C(=O)[C@@H](NC(=O)[C@H]2CC[C@H](c3ccc(-c4cnc(N5CCN6c7cc(-c8ccccc8O)nnc7NC[C@H]6C5)nc4)cc3)CC2)C(C)(C)C)cc1 [I-23]			10 to 100 nM		70 to 90%		C (C (10-100 fold))		> 100 nM	< 50%
Cc1ncsc1-c1ccc(CNC(=O)[C@@H]2C[C@@H](O)CN2C(=O)[C@@H](NC(=O)C2(F)CC2)C(C)(C)C)c(OC2CN(CCN3CCC(c4cnc(N5CCc6[nH]c7nnc(-c8ccccc8O)cc7c6C5C)nc4)CC3)C2)c1 (some centres unmarked) [I-44]			10 to 100 nM		70 to 90%		D (D (<10 fold))		> 100 nM	70 to 90%

Next, values leading:

DC50 [1]	SMARCA2 MSD MV411 degradation 24 h: average Dmax % [2]	DC50 [2]	SMARCA2 MSD A549 degradation 24 h: Average Dmax % [1]	Dmax [2]	Dmax [1]	Selectivity in MV411 [2]	SMARCA4 MSD MV411 degradation 24 h: average Dmax % ([3]; MV4-11 cells)	DC50 ([3]; MV4-11 cells)	Dmax [3]	Compound
> 100 nM	C (C (50-70% degradation))	10 to 100 nM	A (A (>90% degradation))							C#Cc1ccc(CNC(=O)[C@@H]2C[C@@H](O)CN2C(=O)[C@@H](NC(=O)[C@H]2CCC3(CC2)C[C@H](N2CCC(c4cnc(N5CCN6c7cc(-c8cccc(Cl)c8O)nnc7NC[C@@H]6C5)nc4)CC2)C3)C(C)(C)C)cc1 (single isomer, unassigned) [I-154]
> 100 nM		> 100 nM		< 50%	< 50%					C#Cc1ccc(CNC(=O)[C@@H]2C[C@@H](O)CN2C(=O)[C@@H](NC(=O)C2CCC3(CC2)CC(N2CCC(c4cnc(N5CCN6c7cc(-c8ccccc8O)nnc7NC[C@H]6C5)nc4)CC2)C3)C2CCNCC2)cc1 (some centres unmarked) [I-132]
> 100 nM	C (C (50-70% degradation))	10 to 100 nM			70 to 90%					C#Cc1ccc(CNC(=O)[C@@H]2C[C@@H](O)CN2C(=O)[C@@H](NC(=O)[C@H]2CCC3(CC2)C[C@H](N2CCC(c4cnc(N5CCN6c7cc(-c8cccc(Cl)c8O)nnc7NC[C@H]6C5)nc4)CC2)C3)C(C)(C)C)cc1 (single isomer, unassigned) [I-152]
> 100 nM		1 to 10 nM		70 to 90%	> 90%					C#Cc1ccc(CNC(=O)[C@@H]2C[C@@H](O)CN2C(=O)[C@@H](NC(=O)[C@H]2CCC3(CC2)C[C@H](N2CCC(c4cnc(N5CCN6c7cc(-c8cccc(Cl)c8O)nnc7NC[C@@H]6C5)nc4)CC2)C3)C(C)(C)C)cc1 (single isomer, unassigned) [I-153]
	B (B (>70-90% degradation))	10 to 100 nM				B (B (>100-500 fold))	D (D (<50% degradation))	> 100 nM		Cc1ncsc1-c1ccc(CNC(=O)[C@@H]2C[C@@H](O)CN2C(=O)[C@@H](NC(=O)[C@H]2CC3(CC[C@H](N4CCC(c5cnc(N6CCN7c8cc(-c9ccccc9O)nnc8NC[C@H]7C6)nc5)CC4)CC3)C2)C(C)(C)C)cc1 (single isomer, unassigned) [I-66]
		> 100 nM		< 50%		C (C (10-100 fold))		> 100 nM	< 50%	CC(C)C(C(=O)N1C[C@H](O)C[C@H]1C(=O)NCc1ccc(C#N)cc1)c1cc(N2CC3(CC(N4CCC(c5cnc(N6CCN7c8cc(-c9ccccc9O)nnc8NC[C@H]7C6)nc5)CC4)C3)C2)no1 (some centres unmarked) [I-20]
